Reference: PMC12405493, “Selective ubiquitination of drug-like small molecules by the ubiquitin ligase HUWE1” (Nature Communications, 2025)

Key:
[1] = tested on: HEK293T WT cells; assay: Click chemistry-based detection of compound ubiquitination in cell lysates; parameters: species or system human; details: for Compound ubiquitination in cells (click chemistry, cell lysates): HEK293T WT, 10 μM or 20 μM
Method: Cell lysate-based applications: HEK293T WT or HUWE1 KO cells at ~70% confluency on a 10-cm dish were treated with 10 μM or 20 μM BI8626 derivative 6, 7 or 8 for the indicated times. As indicated in the results section, derivative 8 yielded slightly stronger signal than 6 and was thus used for analyses of the prerequisites of cellular small-molecule ubiquitination. Treatment with 1 μM TAK243 (MedChemExpress) or 10 μM MLN4924 (Sigma-Aldrich) was performed for 1 h, prior to derivative 8 administration. Cells were collected with ice-cold 1 x DPBS, centrifugated, and the cell pellet was resuspended in 300 μL sodium phosphate buffer (pH 7.0) (Jena Bioscience), supplemented with 1% (v/v) NP-40, 3 M urea, 10 mM NEM, 50 μM PR-619, 10 μM MG-132 and protease-phosphatase inhibitor cocktail. After 20 min rotating at 4 °C, the lysate was cleared by centrifugation, the total protein concentration determined with a Pierce BCA Protein Assay Kit, the sample diluted to ~7.5 μg μL^−1 and supplemented with 5 μM IRDye 800CW Azide (LI-COR), a mixture of 2 mM CuSO4/10 mM THPTA (Jena Bioscience) and 100 mM sodium ascorbate. The click chemistry reaction was performed in the dark at 37 °C, shaking at 300 rpm. After 1 h, the reaction was quenched with 40 mM EDTA, diluted 1.2-fold with 10 mM Tris (pH 7.5), 150 mM NaCl and 0.5 mM EDTA. 25 μL Ubiquitin-Trap Magnetic Agarose beads (Proteintech) were added, the mixture was rotated at 4 °C for 80 min, the resin washed 3 x with 10 mM Tris (pH 7.5), 150 mM NaCl, 0.05% (v/v) NP-40, 0.5 mM EDTA and 3 M urea, following protein elution in 40 μL of 1.5 x SDS-loading dye at 95 °C for 5 min. 10 μL were subjected to SDS-PAGE and analyzed by fluorescence scanning (Odyssey CLx; LI-COR) and Coomassie staining.

[2] = molecular target: T1, HUWE1^HECT (Homo sapiens, UniProt Q7Z6Z7); assay: HUWE1^HECT multi-turnover ubiquitination reactions (fluorescent Ub tracer, SDS-PAGE); assay type: biochemical; details: 20 μM compound
T1 construct: the isolated HECT domain of HUWE1 (HUWE1^HECT); made in house
T1 sequence (Q7Z6Z7 4038-4374 limits assumed): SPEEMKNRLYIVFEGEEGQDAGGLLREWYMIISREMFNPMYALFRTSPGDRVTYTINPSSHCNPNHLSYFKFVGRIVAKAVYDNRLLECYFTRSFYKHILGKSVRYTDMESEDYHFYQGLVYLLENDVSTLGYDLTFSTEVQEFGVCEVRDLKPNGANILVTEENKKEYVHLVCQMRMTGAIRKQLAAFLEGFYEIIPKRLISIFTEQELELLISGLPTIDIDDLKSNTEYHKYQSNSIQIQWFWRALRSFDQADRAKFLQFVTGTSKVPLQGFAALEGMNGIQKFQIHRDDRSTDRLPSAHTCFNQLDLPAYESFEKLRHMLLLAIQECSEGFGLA
Method: (§1) HUWE1^HECT multi-turnover ubiquitination reactions were performed for 30 minutes (unless stated otherwise) with 200 nM UBA1, 5 μM UBE2L3 or UBE2D3 (as specified), 1 μM HUWE1^HECT and 30 μM Ub in 25 mM HEPES (pH 7.5), 100 mM NaCl, 3 mM MgCl2, and 0.5 mM TCEP. HUWE1^FL multi-turnover ubiquitination reactions included 50 nM UBA1, 2.5 μM UBE2L3, 0.05 μM HUWE1^FL, 0.5 μM MCL1 (or 0.5 μM H2B or 1 μM FOXP3) and 20 μM Ub in 20 mM HEPES (pH 7.5), 100 mM NaCl, 3 mM MgCl2, and 0.5 mM TCEP. All multi-turnover reactions were started by the addition of 1 mM ATP, incubated at 30 °C, quenched with SDS-loading dye. If not stated otherwise, HUWE1^FLautoubiquitination reactions were incubated for 20 minutes. Substrate ubiquitination reactions with MCL1 or H2B were incubated for 10 and 20 min, respectively; those with FOXP3 for 30 min. Those reactions that were monitored by fluorescence contained a fluorescent Ub tracer (IRDye 800CW maleimide; LI-COR)[55] and were monitored using an Odyssey CLx scanner (LI-COR), followed by Coomassie staining. In the fluorescence images, only those marker bands are labeled (in kDa) that are visible by fluorescence; all marker bands are labeled in the Coomassie-stained images. Statistical analyses were performed with Prism 9 v.9.3.1 (GraphPad).

[3] = molecular target: T2, HUWE1^HECT (Homo sapiens, UniProt Q7Z6Z7); assay: Analytical SEC / intact protein MS of HUWE1^HECT-driven compound ubiquitination; assay type: biochemical; details: 20 μM compound; + ATP; WT Ub
T2 construct: the isolated HECT domain of HUWE1 (HUWE1^HECT); made in house
T2 sequence (Q7Z6Z7 3993-4374): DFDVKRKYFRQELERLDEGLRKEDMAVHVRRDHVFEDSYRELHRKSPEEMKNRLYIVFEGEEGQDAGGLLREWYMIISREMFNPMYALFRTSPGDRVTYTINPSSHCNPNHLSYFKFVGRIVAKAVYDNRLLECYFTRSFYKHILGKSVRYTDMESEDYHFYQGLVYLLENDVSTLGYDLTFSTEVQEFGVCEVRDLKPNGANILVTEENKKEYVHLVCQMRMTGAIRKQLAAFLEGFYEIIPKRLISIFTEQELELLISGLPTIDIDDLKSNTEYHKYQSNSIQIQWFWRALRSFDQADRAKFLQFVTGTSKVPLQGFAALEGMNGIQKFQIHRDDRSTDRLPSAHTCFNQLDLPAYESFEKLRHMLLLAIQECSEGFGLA
Method: HUWE1^HECT multi-turnover ubiquitination reactions were performed with 500 nM UBA1, 5 μM UBE2L3, 5 μM HUWE1^HECT and 100 μM Ub in 20 mM HEPES (pH 7.5), 100 mM NaCl and 0.5 mM TCEP in the presence of 1 mM ATP and 3 mM MgCl2. After 15 min incubation at 30 °C, the mixture was injected into a Superdex 75 Increase 3.2/300 column (Cytiva), equilibrated in 25 mM HEPES (pH 7.5), 100 mM NaCl, and 0.5 mM TCEP at 4 °C. Chromatograms were analyzed and peaks integrated with Unicorn v.7.9.02440 (Cytiva). Data were plotted with Prism v.9.3.1 (GraphPad).
Intact protein LC/MS: protein molecular weights (MWs) were determined by LC/MS on a nanoflow chromatography system (Dionex U3000 nanoRSLC), hyphenated to a hybrid quadrupole/orbitrap mass spectrometer (Q Exactive HF) with a NanoFlex ion source and controlled by Xcalibur v.2.4 (all Thermo Fisher Scientific). Proteins were dissolved in 2% (v/v) acetonitrile (ACN), 0.1% (v/v) formic acid (FA) to a concentration of 100 fmol μL^−1. For each analysis, 500 fmol were enriched on a pre-column (0.15 ×20 mm, Reprosil-Pur120 C18-AQ 5 μm; Dr. Maisch GmbH) and separated on an analytical RP-C18 column (0.075 mm×200 mm, Reprosil-Pur 120 C18-AQ; 1.9 μm, Dr. Maisch GmbH), using a 23-min linear gradient of 10–80% (v/v) ACN/0.1% (v/v) FA at 300 nl min^−1. MS data were acquired in full MS mode across the 500–1800 m/z-range at a resolution setting of 120,000 FWHM, an AGC target of 1*10e6 and a maximum fill time of 200 ms. Charge state deconvolution and MW representation were performed in Freestyle v.1.9 (Thermo Fisher Scientific), using default settings for high-resolution data.

[4] = molecular target: T3, HUWE1^FL (Homo sapiens, UniProt Q7Z6Z7); assay: HUWE1^FL multi-turnover ubiquitination reactions without protein substrate (autoubiquitination, free Ub chains); assay type: biochemical; details: for Inhibition by derivatives modified at the piperazine-linked benzyl moiety: Supplementary Fig. 18c, d
T3 construct: made in house; host or cells: HEK293T (transient transfection, anti-Flag purification, SEC)
Method: as §1

[5] = molecular target: T3, HUWE1^FL; assay: Click chemistry-based detection of compound ubiquitination by HUWE1^FL in vitro; assay type: biochemical
Method: In vitro applications: Multi-turnover ubiquitination reactions were performed with 50 nM UBA1, 2.5 μM UBE2L3, 50 nM HUWE1^FL and 20 μM Ub in 20 mM HEPES (pH 7.5), 100 mM NaCl, 0.5 mM TCEP, and 20 μM derivative 6 or 7 ± 0.5 μM MCL1 at 30 °C for 10 min. The reactions were started by addition of 1 mM ATP/3 mM MgCl2 and quenched with 3 M urea. Click-chemistry labeling was performed by incubation of the samples with 20 μM IRDye 800CW Azide Infrared Dye (LI-COR), 5 mM CuSO4, 10 mM THPTA and 50 mM sodium ascorbate for 60 min at 37 °C in the dark, following by quenching with 40 mM EDTA. Following SDS-PAGE, the gels were fixed in 10% acetic acid and 30% ethanol for 2 ×15 min and washed in water overnight.

[6] = tested on: HEK293T HUWE1 KO cells; assay: Click chemistry-based detection of compound ubiquitination in HUWE1 knock-out cells (± HUWE1 overexpression); assay type: cell-based, human
Method: The protocol for CRISPR/Cas9-mediated HUWE1-knockout in HEK293T cells was previously described. In short, two sgRNAs were cloned separately into pX330-U6-Chimeric_BB-CBh-hSpCas9 (a gift from Feng Zhang; http://n2t.net/addgene:42230; RRID:Addgene_42230)[68] and pSpCas9(BB)−2A-GFP (PX458) (a gift from Feng Zhang; http://n2t.net/addgene:48138; RRID:Addgene_48138)[69]. Transfections were performed with Lipofectamine LTX (Thermo Fisher Scientific), single cells FACS-seeded into 96-well plates, and clones derived from single cells screened for HUWE1 deficiency by sequencing and immunoblotting.
Transient transfections of HA-tagged HUWE1^FL WT and C4341S (Fig. 5g) were performed in antibiotic-free and FBS-free media using Lipofectamine 3000 (Thermo Fisher Scientific). 6 h post transfection the media was exchanged to media supplemented with antibiotics and FBS. 24 h post transfection cells were treated with 10 μM or 20 μM BI8626 derivative 8 for 1 h and then collected.
Cell lysate-based applications: HEK293T WT or HUWE1 KO cells at ~70% confluency on a 10-cm dish were treated with 10 μM or 20 μM BI8626 derivative 6, 7 or 8 for the indicated times. As indicated in the results section, derivative 8 yielded slightly stronger signal than 6 and was thus used for analyses of the prerequisites of cellular small-molecule ubiquitination. Treatment with 1 μM TAK243 (MedChemExpress) or 10 μM MLN4924 (Sigma-Aldrich) was performed for 1 h, prior to derivative 8 administration. […] After 20 min rotating at 4 °C, the lysate was cleared by centrifugation, the total protein concentration determined with a Pierce BCA Protein Assay Kit, the sample diluted to ~7.5 μg μL^−1 and supplemented with 5 μM IRDye 800CW Azide (LI-COR), a mixture of 2 mM CuSO4/10 mM THPTA (Jena Bioscience) and 100 mM sodium ascorbate. […] 10 μL were subjected to SDS-PAGE and analyzed by fluorescence scanning (Odyssey CLx; LI-COR) and Coomassie staining.

T3 sequence (Q7Z6Z7 whole entry): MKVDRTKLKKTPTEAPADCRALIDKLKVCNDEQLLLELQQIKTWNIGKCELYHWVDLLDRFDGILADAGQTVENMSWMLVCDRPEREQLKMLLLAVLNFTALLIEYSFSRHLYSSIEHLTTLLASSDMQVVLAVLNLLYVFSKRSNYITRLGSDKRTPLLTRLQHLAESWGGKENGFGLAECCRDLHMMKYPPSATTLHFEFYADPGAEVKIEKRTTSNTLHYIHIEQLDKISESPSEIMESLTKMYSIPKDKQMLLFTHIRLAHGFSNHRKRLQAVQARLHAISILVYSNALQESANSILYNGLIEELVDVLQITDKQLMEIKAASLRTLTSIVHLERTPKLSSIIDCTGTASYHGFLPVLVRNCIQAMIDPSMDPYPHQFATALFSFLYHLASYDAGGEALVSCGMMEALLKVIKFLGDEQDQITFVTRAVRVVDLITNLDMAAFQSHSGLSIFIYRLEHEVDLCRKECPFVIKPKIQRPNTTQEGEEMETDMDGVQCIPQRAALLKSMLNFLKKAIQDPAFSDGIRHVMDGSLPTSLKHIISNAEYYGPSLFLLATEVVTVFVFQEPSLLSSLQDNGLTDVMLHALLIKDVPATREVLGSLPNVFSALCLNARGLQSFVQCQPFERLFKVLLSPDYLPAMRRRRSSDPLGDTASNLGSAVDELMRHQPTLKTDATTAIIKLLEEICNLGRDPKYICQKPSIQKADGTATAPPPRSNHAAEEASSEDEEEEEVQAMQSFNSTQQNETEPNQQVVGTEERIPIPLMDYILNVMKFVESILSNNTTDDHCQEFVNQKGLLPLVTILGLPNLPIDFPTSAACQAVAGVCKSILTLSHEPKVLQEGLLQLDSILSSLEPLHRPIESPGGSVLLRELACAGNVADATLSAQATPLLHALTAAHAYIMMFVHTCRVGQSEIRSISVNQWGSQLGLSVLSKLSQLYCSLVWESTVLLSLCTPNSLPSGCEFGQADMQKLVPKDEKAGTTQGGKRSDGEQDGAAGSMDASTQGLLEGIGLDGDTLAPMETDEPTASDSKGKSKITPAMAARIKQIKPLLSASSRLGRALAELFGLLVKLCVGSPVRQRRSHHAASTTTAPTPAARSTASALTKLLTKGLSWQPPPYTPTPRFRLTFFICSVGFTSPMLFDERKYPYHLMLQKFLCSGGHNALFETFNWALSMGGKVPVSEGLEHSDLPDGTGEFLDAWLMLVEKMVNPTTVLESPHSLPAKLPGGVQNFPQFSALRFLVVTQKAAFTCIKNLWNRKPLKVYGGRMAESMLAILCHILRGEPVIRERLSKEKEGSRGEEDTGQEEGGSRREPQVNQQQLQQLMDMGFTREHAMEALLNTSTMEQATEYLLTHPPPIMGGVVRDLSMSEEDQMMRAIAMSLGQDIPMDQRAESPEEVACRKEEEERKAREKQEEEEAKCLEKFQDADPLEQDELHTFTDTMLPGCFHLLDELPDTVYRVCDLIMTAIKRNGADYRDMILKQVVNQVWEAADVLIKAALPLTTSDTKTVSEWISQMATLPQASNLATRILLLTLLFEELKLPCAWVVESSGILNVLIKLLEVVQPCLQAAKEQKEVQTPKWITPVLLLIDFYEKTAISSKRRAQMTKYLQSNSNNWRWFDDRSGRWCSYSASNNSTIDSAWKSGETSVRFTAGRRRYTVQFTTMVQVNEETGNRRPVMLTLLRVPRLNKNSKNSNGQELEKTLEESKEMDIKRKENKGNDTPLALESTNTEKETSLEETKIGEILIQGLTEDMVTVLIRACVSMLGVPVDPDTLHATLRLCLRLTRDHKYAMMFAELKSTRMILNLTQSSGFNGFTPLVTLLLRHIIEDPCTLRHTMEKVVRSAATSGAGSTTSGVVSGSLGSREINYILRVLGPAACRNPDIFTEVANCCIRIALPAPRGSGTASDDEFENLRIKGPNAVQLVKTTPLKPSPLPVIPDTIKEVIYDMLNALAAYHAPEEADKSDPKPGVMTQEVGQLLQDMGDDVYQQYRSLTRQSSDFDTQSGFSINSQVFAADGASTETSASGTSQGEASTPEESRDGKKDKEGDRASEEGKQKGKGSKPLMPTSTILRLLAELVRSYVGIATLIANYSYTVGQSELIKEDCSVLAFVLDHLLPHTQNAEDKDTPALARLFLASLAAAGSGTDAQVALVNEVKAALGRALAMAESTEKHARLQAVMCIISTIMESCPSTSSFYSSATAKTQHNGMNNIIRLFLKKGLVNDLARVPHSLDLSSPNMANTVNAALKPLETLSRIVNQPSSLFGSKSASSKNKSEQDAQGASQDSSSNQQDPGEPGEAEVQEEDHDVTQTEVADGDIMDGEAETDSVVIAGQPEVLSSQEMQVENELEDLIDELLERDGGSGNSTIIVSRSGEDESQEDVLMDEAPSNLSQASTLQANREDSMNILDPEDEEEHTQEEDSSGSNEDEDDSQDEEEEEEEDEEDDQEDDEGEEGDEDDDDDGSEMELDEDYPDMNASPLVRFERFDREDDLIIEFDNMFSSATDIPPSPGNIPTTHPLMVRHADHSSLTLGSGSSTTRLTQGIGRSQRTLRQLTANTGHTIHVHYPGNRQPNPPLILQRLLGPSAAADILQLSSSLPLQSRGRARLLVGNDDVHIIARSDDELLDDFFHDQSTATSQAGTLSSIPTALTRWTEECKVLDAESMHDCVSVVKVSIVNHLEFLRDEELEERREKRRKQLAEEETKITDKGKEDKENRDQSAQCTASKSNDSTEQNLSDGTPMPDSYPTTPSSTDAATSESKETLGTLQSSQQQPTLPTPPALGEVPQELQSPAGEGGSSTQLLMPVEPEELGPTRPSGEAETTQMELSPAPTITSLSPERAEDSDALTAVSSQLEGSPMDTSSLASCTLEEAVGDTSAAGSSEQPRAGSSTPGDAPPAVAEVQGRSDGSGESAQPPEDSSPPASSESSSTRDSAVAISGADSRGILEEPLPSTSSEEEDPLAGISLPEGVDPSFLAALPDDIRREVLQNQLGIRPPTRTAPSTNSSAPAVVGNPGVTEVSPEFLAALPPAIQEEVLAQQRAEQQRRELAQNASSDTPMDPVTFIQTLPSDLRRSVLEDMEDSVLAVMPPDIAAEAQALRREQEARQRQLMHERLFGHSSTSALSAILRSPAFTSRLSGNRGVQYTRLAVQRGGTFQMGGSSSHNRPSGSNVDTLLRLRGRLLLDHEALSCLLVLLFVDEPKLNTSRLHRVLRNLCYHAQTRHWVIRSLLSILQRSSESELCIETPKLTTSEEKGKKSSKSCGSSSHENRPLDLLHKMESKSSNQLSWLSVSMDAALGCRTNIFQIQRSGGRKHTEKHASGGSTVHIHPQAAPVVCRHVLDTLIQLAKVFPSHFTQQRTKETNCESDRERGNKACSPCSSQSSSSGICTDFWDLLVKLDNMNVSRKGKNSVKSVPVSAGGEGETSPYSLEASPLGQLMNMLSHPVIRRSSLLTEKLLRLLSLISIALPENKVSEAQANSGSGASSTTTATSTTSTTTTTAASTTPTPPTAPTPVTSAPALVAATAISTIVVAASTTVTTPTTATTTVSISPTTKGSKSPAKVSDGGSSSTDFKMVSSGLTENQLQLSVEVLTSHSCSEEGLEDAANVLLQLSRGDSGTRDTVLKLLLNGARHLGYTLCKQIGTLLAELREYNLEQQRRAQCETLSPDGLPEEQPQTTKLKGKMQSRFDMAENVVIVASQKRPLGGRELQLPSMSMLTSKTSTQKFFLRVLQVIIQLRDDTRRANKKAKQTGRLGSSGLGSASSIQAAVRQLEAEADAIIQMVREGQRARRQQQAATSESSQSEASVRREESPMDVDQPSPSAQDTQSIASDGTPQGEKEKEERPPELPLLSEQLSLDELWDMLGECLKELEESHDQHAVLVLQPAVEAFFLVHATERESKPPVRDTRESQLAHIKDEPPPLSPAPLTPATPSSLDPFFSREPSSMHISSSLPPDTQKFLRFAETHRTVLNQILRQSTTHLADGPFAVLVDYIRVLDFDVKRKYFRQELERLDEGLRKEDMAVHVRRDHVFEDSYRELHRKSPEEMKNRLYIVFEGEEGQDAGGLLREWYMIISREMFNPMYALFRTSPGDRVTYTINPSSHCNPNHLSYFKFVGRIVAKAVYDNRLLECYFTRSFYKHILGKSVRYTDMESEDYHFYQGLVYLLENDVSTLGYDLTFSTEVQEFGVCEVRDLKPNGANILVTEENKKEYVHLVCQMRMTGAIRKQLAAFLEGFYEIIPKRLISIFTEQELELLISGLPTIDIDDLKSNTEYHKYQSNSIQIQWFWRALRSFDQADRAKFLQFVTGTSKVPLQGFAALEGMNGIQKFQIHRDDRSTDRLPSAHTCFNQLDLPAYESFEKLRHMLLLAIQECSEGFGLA

NS(=O)(=O)OC[C@@H]1C[C@@H](n2ccc3c(N[C@H]4CCc5ccccc54)ncnc32)C[C@@H]1O [MLN4924]
Effect on cell-based ubiquitination of derivative 8 ([1]; 10 μM MLN4924 for 1 h prior to derivative 8): does not markedly affect derivative 8 ubiquitination

NS(=O)(=O)OC[C@H]1C[C@@H](Nc2ccnc3cc(-c4cccc(SC(F)(F)F)c4)nn23)[C@H](O)[C@@H]1O [TAK243]
Effect on cell-based ubiquitination of derivative 8 ([1]; 1 μM TAK243 for 1 h prior to derivative 8): markedly reduced

NCc1ccc(CNc2ncnc3c(N4CCN(Cc5ccccc5)CC4)ncnc23)cc1 [derivative 1, N-(4-(aminomethyl)benzyl)−8-(4-benzylpiperazin-1-yl)pyrimido[5,4-d]pyrimidin-4-amine]
HUWE1^HECT inhibition (autoubiquitination) by BI8626 derivatives [2]: retained HUWE1^HECT inhibition | Compound ubiquitination by HUWE1^HECT (SEC, intact protein MS) [3]: efficiently ubiquitinated | Inhibition of HUWE1^FL by BI8626 derivatives ([4]; 20 μM, without protein substrate and with MCL1 (Fig. 4c, d)): also inhibited

CN1CCN(c2ncnc3c(NCc4cccc(CN)c4)ncnc23)CC1 [derivative 5, N-(3-(aminomethyl)benzyl)−8-(4-methylpiperazin-1-yl)pyrimido[5,4-d]pyrimidin-4-amine]
Inhibition by derivatives modified at the piperazine-linked benzyl moiety [4]: maintains considerable inhibition

C#CCCCN1CCN(c2ncnc3c(NCc4cccc(CN)c4)ncnc23)CC1 [derivative 6, N-(3-(aminomethyl)benzyl)−8-(4-(pent-4-yn-1-yl)piperazin-1-yl)pyrimido[5,4-d]pyrimidin-4-amine]
Compound ubiquitination by HUWE1^FL, click-chemistry fluorescence ([5]; 20 μM compound, 10 min, ATP-dependent): fluorescent signals corresponding to the mono- and diubiquitinated forms | MCL1 ubiquitination (immunoblotting) with increasing compound ([5]; varying concentrations of derivative 6 and MCL1): decreased as the compound modification increased | Compound ubiquitination in cells (click chemistry, cell lysates) [1]: Both mono- and polyubiquitinated forms of derivatives 6 and 8 were detected | Inhibition by derivatives modified at the piperazine-linked benzyl moiety [4]: preserved inhibition to a similar extent

C#CCN1CCN(c2ncnc3c(NCc4cccc(CN)c4)ncnc23)CC1 [derivative 8, N-(3-(aminomethyl)benzyl)−8-(4-(prop-2-yn-1-yl)piperazin-1-yl)pyrimido[5,4-d]pyrimidin-4-amine]
Compound ubiquitination in HUWE1 knock-out cells ([6]; HEK293T HUWE1 KO vs WT): still detected in this context, albeit at slightly reduced levels | Compound ubiquitination upon overexpression of WT HUWE1 (not catalytically inactive variant) ([6]; HEK293T HUWE1 KO, transient transfection): enhances compound ubiquitination | Share of total compound ubiquitination signal that endogenous HUWE1 accounts for ([6]; HEK293T WT vs HUWE1 KO, all species (8-Ub, 8-Ub2, 8-Ubn)): ≤ 25% | Compound ubiquitination in cells (click chemistry, cell lysates) [1]: Both mono- and polyubiquitinated forms of derivatives 6 and 8 were detected | Inhibition by derivatives modified at the piperazine-linked benzyl moiety [4]: preserved inhibition to a similar extent
